From patent publication US7803558B2, “Modulation of aqueous humor outflow by targeting vascular-endothelial-cadherin in Schlemm's canal cells” (The Arizona Board of Regents on behalf of the University of …, priority 2003, dated 2010)
Where two headings read alike, the source gives them in different places.

Key:
[1] = test system: human Schlemm's canal (SC) cell monolayers
Protocol: (§1) SC Cells: Human cadaveric eye tissue was obtained from Donor Network of Arizona, San Diego Lions Eye Bank or North Carolina Lions Eye Bank within 48 hours of death for whole eyes stored in moist chambers, and within 96 hours for non-transplantable corneal anterior segments stored in Optisol (Chiron Vision, Clairmont, Calif.). Human SC cells were isolated from the cadaveric eye tissue using gelatin-coated cannulas, as described previously (Stamer W D, et al Invest Opthalmol Vis Sci 1998; 39:1804-1812) or by differential dissection (O'Brien E, Invest. Opthalmol. Vis. Sci. 2000; 41:3842-3849). Cells used in perfusion studies were isolated by both methods while only cells isolated by differential dissection were used in morphology experiments. Cells were grown and maintained in Dulbecco's Modified Eagle Medium (DMEM) and maintained in humidified air containing 5% CO2 at 37° C., as described previously (Stamer W D, et al Invest Opthalmol Vis Sci 1998; 39:1804-1812). Human SC cells were seeded at 100,000 cells/cm^2onto 1-cm^2 Snapwell Filters (Snapwell; Costar, Acton, Mass.) with 0.4-μm pore diameter in 10% FBS/DMEM. Primary cultures of eight SC cell strains were isolated from eight different cadaveric eyes without a history of glaucoma and used in the present study (SC3, SC6, SC10, SC11, SC41, SC42, SC 57 and SC68).
(§2) Transendothelial electrical resistance (TEER) of cell monolayers cultured on Snapwell filters was measured using a TEER measurement chamber (ENDOHM-24; World Precision Instruments) in conjunction with an epithelial voltohmmeter (EVOM; World Precision Instruments). […] Pressure in the upstream compartment was generated by an elevated reservoir of HEPES-DMEM, with pressure recorded using a pressure transducer (AH 60-3002; Harvard Apparatus, Holliston, Mass.), while the downstream compartment was vented to atmospheric pressure. The rate of fluid flow through the chamber was calculated from the weight change per unit time of the reservoir measured using an isometric transducer (AH 60-2994; Harvard Apparatus). Pressure and weight data were recorded simultaneously at 30 times/sec onto hard drive of computer using a Data Acquisition System (MP100WSW; Biopac Systems, Inc., Santa Barbara, Calif.).
(§3) Once stable TEER was achieved, a valve between the reservoir and chamber was opened to expose the upstream chamber to pressure. TEER, flow, and pressure measurements were recorded for 20 minutes to establish baseline values. […] The medium in the upstream chamber was then exchanged with […] HEPES-DMEM at a rate of 2.5 ml/min, and a second 10-minute baseline period was measured.

[2] = test system: human Schlemm's canal (SC) cell monolayers; remark: listed apart in the source
Protocol: as §1
as §2, with “Instruments). Following three rinses with prewarmed 20 mM HEPES (Sigma, St. Louis, Mo.) buffered DMEM (serum-free, pH 7.4; HEPES-DMEM), filters were carefully transferred to the TEER measurement chamber filled with HEPES-DMEM.” for “Instruments).”
Once stable TEER was achieved, a valve between the reservoir and chamber was opened to expose the upstream chamber to pressure. TEER, flow, and pressure measurements were recorded for 20 minutes to establish baseline values.

[3] = test system: MDCK cell monolayers
Protocol: (§4) MDCK Cells: Madin-Darby Canine Kidney cells (MDCK), were used as a control to characterize perfusion system and for comparisons to SC monolayers. […] MDCK cells thus served as a positive control for comparisons with SC cells in subsequent experiments. MDCK Cells used in the present study were a gift from Dr. Ronald Lynch (University of Arizona) and were used between passages 14-16. Cells were grown in DMEM and maintained in humidified air containing 5% CO2 at 37° C. for at least three weeks after reaching confluence before experimentation.
Transendothelial electrical resistance (TEER) of cell monolayers cultured on Snapwell filters was measured using a TEER measurement chamber (ENDOHM-24; World Precision Instruments) in conjunction with an epithelial voltohmmeter (EVOM; World Precision Instruments). Following three rinses with prewarmed 20 mM HEPES (Sigma, St. Louis, Mo.) buffered DMEM (serum-free, pH 7.4; HEPES-DMEM), filters were carefully transferred to the TEER measurement chamber filled with HEPES-DMEM. […] The Snapwell filters containing the cell monolayers were then carefully placed into an Ussing-type chamber (Ussing system CHM5; World Precision Instruments, Sarasota, Fla.) filled with HEPES-DMEM and maintained at 37° C. in an air incubator for 15 minutes prior to pressure application. Filters were oriented such that the apical surface of cell monolayers faced the upstream chamber. Flow through cell monolayers was a function of the pressure gradient between the upstream and downstream compartments of the chamber. Pressure in the upstream compartment was generated by an elevated reservoir of HEPES-DMEM, with pressure recorded using a pressure transducer (AH 60-3002; Harvard Apparatus, Holliston, Mass.), while the downstream compartment was vented to atmospheric pressure. The rate of fluid flow through the chamber was calculated from the weight change per unit time of the reservoir measured using an isometric transducer (AH 60-2994; Harvard Apparatus). Pressure and weight data were recorded simultaneously at 30 times/sec onto hard drive of computer using a Data Acquisition System (MP100WSW; Biopac Systems, Inc., Santa Barbara, Calif.).
as §3
Hydraulic conductivity was measured continuously and TEER measurements were then taken every five minutes for the duration of the trial.

[4] = test system: MDCK cell monolayers (cell borders); details: by 60 seconds after Na2EDTA, data not shown
Protocol: as §4

[5] = test system: MDCK cell monolayers; remark: listed apart in the source
Protocol: as §4
as §2, with “Instruments). Following three rinses with prewarmed 20 mM HEPES (Sigma, St. Louis, Mo.) buffered DMEM (serum-free, pH 7.4; HEPES-DMEM), filters were carefully transferred to the TEER measurement chamber filled with HEPES-DMEM.” for “Instruments).”
as §3

[6] = test system: SC cell monolayers (cell margins)
Protocol: as §1

O=C([O-])CN(CCN(CC(=O)[O-])CC(=O)O)CC(=O)O.[Na+].[Na+] [Na2EDTA]
impact of lower concentrations on HC or TEER ([1]; SC monolayers, 0.5-2 mM Na2EDTA, n=6): not to impact significantly | minimum Na2EDTA needed to effect both hydraulic conductivity and TEER ([1]; SC monolayers, titration experiments, time course of the experiments, n=13-15, data not shown): 5 mM | percent change in HC relative to baseline following Na2EDTA treatment versus percent change between the two baseline measurements ([1]; SC, paired t-test, p<0.05): significantly greater | percent change in HC relative to baseline following post-Na2EDTA rinse versus percent change between the two baseline measurements ([1]; SC, paired t-test, p<0.05): significantly greater | time required for functional return after washout of Na2EDTA ([2]; SC monolayers, functionally via TEER measurements): 2 h | change in TEER decrease relative to 30-minute baseline in presence of pressure (paired t-test) ([2]; SC, 5 mM Na2EDTA): no significant change | average rate of TEER decrease after Na2EDTA treatment ([2]; SC, 5 mM Na2EDTA for 5 min, 4-6 mm Hg, n=5, +/- SEM): 0.34 (+/−0.26 SEM) Ωcm^2/min | average rate of change of TEER following rinse with normal medium ([2]; SC, after 5 mM Na2EDTA for 5 min): not significantly different from pre-Na2EDTA rates | recovery of TEER and hydraulic conductivity shortly after washout of Na2EDTA ([3]; MDCK cell monolayers, perfusion experiments): partial recovery | minimum Na2EDTA required to effect both hydraulic conductivity and TEER ([3]; MDCK cell monolayers, titration experiments, time course of the experiments, n=13-15, data not shown): 25 mM | percent change in HC relative to baseline following post-Na2EDTA rinse versus percent change between the two baseline measurements ([3]; MDCK, paired t-test): not | percent change in HC relative to baseline following Na2EDTA treatment versus percent change between the two baseline measurements ([3]; MDCK, paired t-test, p<0.05): significantly greater | effect on cell borders [4]: retracted | average rate of TEER decrease after Na2EDTA treatment ([5]; 25 mM Na2EDTA for 5 min, 14-16 mm Hg, n=4, +/- SEM): 1.9 (+/−0.12 SEM) Ωcm^2/min | change in TEER relative to baseline in presence of pressure (paired t-test) ([5]; 25 mM Na2EDTA, p=0.06): approached significance | average rate of change of TEER following rinse with normal medium ([5]; after 25 mM Na2EDTA for 5 min): not significantly different from pre-Na2EDTA rates | time required for cell margins to return to original position / cell-cell contacts to return visually after replacement of normal medium ([6]; 10 mM Na2EDTA for 5 minutes, then normal medium, data not shown): about 30 minutes | retraction of cell margins from each other ([6]; 60 seconds after addition of 10 mM Na2EDTA): about 2 μm | retraction of cell margins from each other ([6]; 90 seconds after addition of 10 mM Na2EDTA): about 3 μm
